Assay results published in patent US8063065B2, “Azaindazole compounds as CCR1 receptor antagonists” (Boehringer Ingelheim International GmbH, priority 2008, dated 2011).

Biological target: T1, CCR1 (Homo sapiens, UniProt P32246)
T1 sequence (P32246 1-355): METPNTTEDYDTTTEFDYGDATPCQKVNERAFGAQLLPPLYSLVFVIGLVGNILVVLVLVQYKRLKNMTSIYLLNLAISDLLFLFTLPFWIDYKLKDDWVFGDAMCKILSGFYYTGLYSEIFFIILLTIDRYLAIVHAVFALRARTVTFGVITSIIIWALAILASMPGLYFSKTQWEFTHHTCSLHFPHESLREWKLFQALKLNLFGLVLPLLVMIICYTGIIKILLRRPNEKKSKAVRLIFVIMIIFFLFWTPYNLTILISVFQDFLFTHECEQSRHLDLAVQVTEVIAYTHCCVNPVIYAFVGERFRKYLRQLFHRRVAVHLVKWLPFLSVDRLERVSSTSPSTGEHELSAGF
Test: Method B: calcium flux in CCR1 transfected cells (Calcium 4 dye, […] FDSS6000), block of the CCR1/MIP-1α interaction
Type: cell-based
Conditions: Method B: Calcium 4 dye, MIP-1alpha at EC80
Outline: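 Non-adherent cells stably expressing CCR1 and G-alpha-16 were loaded with Calcium 4 dye plus probenecid for 1 h at room temperature. Compounds (top 3,000 nM, 4-fold, 10 doses, 1% DMSO) in HBSS/20 mM HEPES pH 7.4 were incubated 30 min at 37 C, then 30 min at room temperature. MIP-1α at EC80 was added and calcium flux read on FDSS6000.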

SMILES	IC50 [nM]
CC[C@H](NC(=O)c1cncc2c1cnn2-c1ccc(F)cc1)c1nc(C(=O)NC)cs1 [1-(4-Fluorophenyl)-1H-pyrazolo[3,4-c]pyridine-4-carboxylic acid [(S)-1-(4-methylcarbamoyl-thiazol-2-yl)-propyl]-amide]	3
CC[C@H](NC(=O)c1cncc2c1cnn2-c1ccc(F)cc1)c1ccc(Br)s1 [1-(4-Fluorophenyl)-1H-pyrazolo[3,4-c]pyridine-4-carboxylic acid [(S)-1-(5-bromo-thiophen-2-yl)-propyl]-amide]	0.6
CCS(=O)(=O)c1cncc([C@H](C)NC(=O)c2cncc3c2cnn3-c2ccc(F)cc2)c1 [1-(4-Fluorophenyl)-1H-pyrazolo[3,4-c]pyridine-4-carboxylic acid [(S)-1-(5-ethanesulfonyl-pyridin-3-yl)-ethyl]-amide]	4
CC[C@H](NC(=O)c1cncc2c1cnn2-c1ccc(F)cc1)c1cccc(Br)n1 [1-(4-Fluorophenyl)-1H-pyrazolo[3,4-c]pyridine-4-carboxylic acid [(S)-1-(6-bromopyridin-2-yl)-propyl]-amide]	0.2
CC[C@H](NC(=O)c1cncc2c1cnn2-c1ccc(F)cc1)c1ccc(S(=O)(=O)NC2CC2)nc1 [1-(4-Fluorophenyl)-1H-pyrazolo[3,4-c]pyridine-4-carboxylic acid [(S)-1-(6-cyclopropylsulfamoyl-pyridin-3-yl)-propyl]-amide]	0.2
CCS(=O)(=O)c1cccc([C@H](C)NC(=O)c2cncc3c2cnn3-c2ccc(F)cc2)n1 [1-(4-Fluorophenyl)-1H-pyrazolo[3,4-c]pyridine-4-carboxylic acid [(S)-1-(6-ethanesulfonyl-pyridin-2-yl)-ethyl]-amide]	14
CCS(=O)(=O)c1ccc([C@H](C)NC(=O)c2cncc3c2cnn3-c2ccc(F)cc2)cn1 [1-(4-Fluorophenyl)-1H-pyrazolo[3,4-c]pyridine-4-carboxylic acid [(S)-1-(6-ethanesulfonyl-pyridin-3-yl)-ethyl]-amide]	6
C[C@H](NC(=O)c1cncc2c1cnn2-c1ccc(F)cc1)c1cc(S(C)(=O)=O)[nH]c(=O)c1 [1-(4-Fluorophenyl)-1H-pyrazolo[3,4-c]pyridine-4-carboxylic acid [(S)-1-(6-methanesulfonyl-2-oxo-1,2-dihydropyridin-4-yl)-ethyl]-amide]	3
C[C@H](NC(=O)c1cncc2c1cnn2-c1ccc(F)cc1)c1cccc(S(N)(=O)=O)n1 [1-(4-Fluorophenyl)-1H-pyrazolo[3,4-c]pyridine-4-carboxylic acid [(S)-1-(6-sulfamoyl-pyridin-2-yl)-ethyl]-amide]	15
CC[C@H](NC(=O)c1cncc2c1cnn2-c1ccc(F)cc1)[C@@H]1CCN(S(C)(=O)=O)[C@@H](C(N)=O)C1 [1-(4-Fluorophenyl)-1H-pyrazolo[3,4-c]pyridine-4-carboxylic acid [(S)-1-((2R,4R)-2-carbamoyl-1-methanesulfonyl-piperidin-4-yl)-propyl]-amide]	10
CC[C@H](NC(=O)c1cncc2c1cnn2-c1ccc(F)cc1)[C@@H]1CCN(S(C)(=O)=O)[C@H](C(N)=O)C1 [1-(4-Fluorophenyl)-1H-pyrazolo[3,4-c]pyridine-4-carboxylic acid [(S)-1-((2S,4R)-2-carbamoyl-1-methanesulfonyl-piperidin-4-yl)-propyl]-amide]	12
CCC(NC(=O)c1cncc2c1cnn2-c1ccc(F)cc1)c1cnc(N(C)S(C)(=O)=O)nc1 (stereo not shown) [1-(4-Fluorophenyl)-1H-pyrazolo[3,4-c]pyridine-4-carboxylic acid {1-[2-(methanesulfonyl-methyl-amino)-pyrimidin-5-yl]-propyl}-amide]	7
CCC(NC(=O)c1cncc2c1cnn2-c1ccc(F)cc1)c1nc(C(=O)NCC(N)=O)c(C)o1 (stereo not shown) [1-(4-Fluorophenyl)-1H-pyrazolo[3,4-c]pyridine-4-carboxylic acid {1-[4-(carbamoylmethyl-carbamoyl)-5-methyl-oxazol-2-yl]-propyl}-amide]	25
CCC(NC(=O)c1cncc2c1cnn2-c1ccc(F)cc1)c1nc(C(=O)NCC#N)c(C)o1 (stereo not shown) [1-(4-Fluorophenyl)-1H-pyrazolo[3,4-c]pyridine-4-carboxylic acid {1-[4-(cyanomethyl-carbamoyl)-5-methyl-oxazol-2-yl]-propyl}-amide]	18
CCC(NC(=O)c1cncc2c1cnn2-c1ccc(F)cc1)c1nc(C(=O)NCC#N)co1 (stereo not shown) [1-(4-Fluorophenyl)-1H-pyrazolo[3,4-c]pyridine-4-carboxylic acid {1-[4-(cyanomethyl-carbamoyl)-oxazol-2-yl]-propyl}-amide]	25

Further lines, results first:

IC50 [nM]	SMILES
0.8	CC[C@H](NC(=O)c1cncc2c1cnn2-c1ccc(F)cc1)c1cc(S(C)(=O)=O)ccn1 [1-(4-Fluorophenyl)-1H-pyrazolo[3,4-c]pyridine-4-carboxylic acid [(S)-1-(4-methanesulfonyl-pyridin-2-yl)-propyl]-amide]
0.3	CC[C@H](NC(=O)c1cncc2c1cnn2-c1ccc(F)cc1)c1nc(S(C)(=O)=O)cs1 [1-(4-Fluorophenyl)-1H-pyrazolo[3,4-c]pyridine-4-carboxylic acid [(S)-1-(4-methanesulfonyl-thiazol-2-yl)-propyl]-amide]
0.1	CC[C@H](NC(=O)c1cncc2c1cnn2-c1ccc(F)cc1)c1cc(S(C)(=O)=O)cs1 [1-(4-Fluorophenyl)-1H-pyrazolo[3,4-c]pyridine-4-carboxylic acid [(S)-1-(4-methanesulfonyl-thiophen-2-yl)-propyl]-amide]
0.9	CC[C@H](NC(=O)c1cncc2c1cnn2-c1ccc(F)cc1)c1c[nH]c(S(C)(=O)=O)c1 [1-(4-Fluorophenyl)-1H-pyrazolo[3,4-c]pyridine-4-carboxylic acid [(S)-1-(5-methanesulfonyl-1H-pyrrol-3-yl)-propyl]-amide]
0.4	CC[C@H](NC(=O)c1cncc2c1cnn2-c1ccc(F)cc1)c1ccc(S(C)(=O)=O)o1 [1-(4-Fluorophenyl)-1H-pyrazolo[3,4-c]pyridine-4-carboxylic acid [(S)-1-(5-methanesulfonyl-furan-2-yl)-propyl]-amide]
0.2	CC[C@H](NC(=O)c1cncc2c1cnn2-c1ccc(F)cc1)c1ccc(S(C)(=O)=O)s1 [1-(4-Fluorophenyl)-1H-pyrazolo[3,4-c]pyridine-4-carboxylic acid [(S)-1-(5-methanesulfonyl-thiophen-2-yl)-propyl]-amide]
0.3	CC[C@H](NC(=O)c1cncc2c1cnn2-c1ccc(F)cc1)c1csc(S(C)(=O)=O)c1 [1-(4-Fluorophenyl)-1H-pyrazolo[3,4-c]pyridine-4-carboxylic acid [(S)-1-(5-methanesulfonyl-thiophen-3-yl)-propyl]-amide]
0.3	CC[C@H](NC(=O)c1cncc2c1cnn2-c1ccc(F)cc1)c1cncc(S(N)(=O)=O)c1 [1-(4-Fluorophenyl)-1H-pyrazolo[3,4-c]pyridine-4-carboxylic acid [(S)-1-(5-sulfamoyl-pyridin-3-yl)-propyl]-amide]
0.5	CC[C@H](NC(=O)c1cncc2c1cnn2-c1ccc(F)cc1)c1cccc(S(=O)(=O)CC)n1 [1-(4-Fluorophenyl)-1H-pyrazolo[3,4-c]pyridine-4-carboxylic acid [(S)-1-(6-ethanesulfonyl-pyridin-2-yl)-propyl]-amide]
0.3	CC[C@H](NC(=O)c1cncc2c1cnn2-c1ccc(F)cc1)c1ccc(S(=O)(=O)CC)nc1 [1-(4-Fluorophenyl)-1H-pyrazolo[3,4-c]pyridine-4-carboxylic acid [(S)-1-(6-ethanesulfonyl-pyridin-3-yl)-propyl]-amide]
0.3	CC[C@H](NC(=O)c1cncc2c1cnn2-c1ccc(F)cc1)c1cc(S(C)(=O)=O)[nH]c(=O)c1 [1-(4-Fluorophenyl)-1H-pyrazolo[3,4-c]pyridine-4-carboxylic acid [(S)-1-(6-methanesulfonyl-2-oxo-1,2-dihydropyridin-4-yl)-propyl]-amide]
0.2	CC[C@H](NC(=O)c1cncc2c1cnn2-c1ccc(F)cc1)c1cccc(S(C)(=O)=O)n1 [1-(4-Fluorophenyl)-1H-pyrazolo[3,4-c]pyridine-4-carboxylic acid [(S)-1-(6-methanesulfonyl-pyridin-2-yl)-propyl]-amide]
0.4	CCC[C@H](NC(=O)c1cncc2c1cnn2-c1ccc(F)cc1)c1ccc(S(C)(=O)=O)nc1 [1-(4-Fluorophenyl)-1H-pyrazolo[3,4-c]pyridine-4-carboxylic acid [(S)-1-(6-methanesulfonyl-pyridin-3-yl)-butyl]-amide]
1	CC[C@H](NC(=O)c1cncc2c1cnn2-c1ccc(F)cc1)c1ccc(S(C)(=O)=O)nc1 [1-(4-Fluorophenyl)-1H-pyrazolo[3,4-c]pyridine-4-carboxylic acid [(S)-1-(6-methanesulfonyl-pyridin-3-yl)-propyl]-amide]
0.3	CC[C@H](NC(=O)c1cncc2c1cnn2-c1ccc(F)cc1)c1cccc(S(N)(=O)=O)n1 [1-(4-Fluorophenyl)-1H-pyrazolo[3,4-c]pyridine-4-carboxylic acid [(S)-1-(6-sulfamoyl-pyridin-2-yl)-propyl]-amide]
12	CS(=O)(=O)c1cc([C@H](CCO)NC(=O)c2cncc3c2cnn3-c2ccc(F)cc2)ccn1 [1-(4-Fluorophenyl)-1H-pyrazolo[3,4-c]pyridine-4-carboxylic acid [(S)-3-hydroxy-1-(2-methanesulfonyl-pyridin-4-yl)-propyl]-amide]
